Experiments:
Assay type in all cases: functional
Settings in all cases: read-out: IZ
Erwinia amylovora [1] = assay: Antibacterial activity against Erwinia amylovora at 1 ug after 12 hrs by agar diffusion assay
Erwinia amylovora [2] = assay: Antibacterial activity against Erwinia amylovora at 10 ug after 12 hrs by agar diffusion assay
Erwinia amylovora [3] = assay: Antibacterial activity against Erwinia amylovora at 100 ug after 12 hrs by agar diffusion assay
Erwinia amylovora [4] = assay: Antibacterial activity against Erwinia amylovora at 0.1 ug after 12 hrs by agar diffusion assay

Row | Compound | zone of inhibition at 1 µg/disc (Erwinia amylovora [1]) | zone of inhibition at 10 µg/disc (Erwinia amylovora [2]) | zone of inhibition at 100 µg/disc (Erwinia amylovora [3]) | zone of inhibition at 0.1 µg/disc (Erwinia amylovora [4])
1 | C=C1C[C@H](C(=O)N[C@H](C(=O)O)C(C)C)NC1=N | 6 mm | 10 mm | 19 mm | 
2 | C=C1C[C@@H](C(=O)N[C@@H](C(=O)O)C(C)C)NC1=N |  |  | 10 mm | 
3 | C=C1C[C@@H](C(=O)N[C@H](C(=O)O)C(C)C)NC1=N | 19 mm |  |  | 10 mm

— ChEMBL document CHEMBL1155397, “Synthesis of amino acid conjugates to 2-imino-3-methylene-5-carboxypyrrolidine and 2-imino-3-methylene-6-carboxypiperidine” (2010)
